Where two headings read alike, the source gives them in different places. Bridge positions count the residues as written; N and C are the ends. Peptide text beside a SMILES is read from it.
Assays:
[1] = biological target: T1, KLK4 (Homo sapiens, UniProt Q9Y5K2); experiment: Inhibitor kinetics: KLK4 amidolytic activity with peptide-pNA substrates; type: biochemical; parameters: pro-region of PSA (KLK3), replacing the native KLK4 pro-region (N, cleaved yes); made in house
Description: Human recombinant KLK4 was expressed in E. coli using a previously described chimeric KLK4 plasmid construct where the native pro-region was replaced with the pro-region of PSA, enabling autoactivation. Protein was expressed as inclusion bodies which were isolated and solubilised as described previously to yield 90% pure KLK4. Protein refolding was performed by dilution into 100 volumes of refolding buffer I (2 M urea, 0.1M NaCl, 5 mM GSH, 0.5 mM GSSG, 10 mM benzamidine, 50 mM tris HCl pH 8.0, 2 mM CaCl2) over 44 hours before further dilution into 3 volumes refolding buffer II (refolding buffer I with 0.5 M urea 0.5 mM GSH, 0.05 mM GSSG, 2 mM CaCl2) over another 24 hours. Dialysis was performed as previously described (with additional 2 mM CaCl2 to reduce aggregation) before concentration using UNO sphere Q (Biorad) eluting with tris buffered saline (pH 7.5)/2 mM CaCl2. Subsequently, the material was purified to apparent homogeneity (according to coomassie blue stained SDS PAGE) by gel filtration using Sephacryl S-200 (GE Health Care) pre-equilibrated with 50 mM Tris-HCl pH 7.5, 20 mM NaCl and 2 mM CaCl2.
All enzymes and substrates were obtained from Sigma Chemicals if not otherwise specified. Bacterially expressed human KLK4 (37 ng), bovine β-trypsin (20 ng), bovine thrombin (20 ng), bovine α-chymotrypsin (0.5 μg), protease (0.5 μg; Streptomyces griseus type XIV), bovine plasminogen (0.5 μg), and human matriptase (30 ng; R&D Systems) were incubated with various concentrations of inhibitors in 200 μL assay buffer for 10 minutes prior to initiation by the addition of 100 μL of 0.3 mM of peptide-pNA substrates (FVQR-pNA: KLK4; BAPNA: trypsin, (Streptomyces griseus Type XIV Protease and bovine plasma plasminogen); Bz-Phe-Val-Arg-pNA: thrombin and matriptase; Trp-pNA: α-chymotrypsin; Leu-pNA: (Streptomyces griseus Type XIV Protease and bovine plasma plasminogen). The release of pNa moiety was monitored as described above for 7 minutes with each point being the average of three independent triplicate reactions. IC50 was determined using the Prism 5 software suite (GraphPad software Inc.).

[2] = biological target: T2, bovine plasminogen (Bos taurus, UniProt P06868); experiment: Inhibitor kinetics: plasminogen amidolytic activity; type: biochemical; conditions: substrate L-pNA, BAPNA (0.2 mM)
T2 construct: purchased Sigma Chemicals; host or cells: bovine plasma
Description: (§1) All enzymes and substrates were obtained from Sigma Chemicals if not otherwise specified. […] The release of pNa moiety was monitored as described above for 7 minutes with each point being the average of three independent triplicate reactions. IC50 was determined using the Prism 5 software suite (GraphPad software Inc.).

[3] = biological target: T3, trypsin (Bos taurus, UniProt P00760); experiment: Protein proteolysis: fibrinogen digestion by trypsin (SDS-PAGE); type: biochemical, bovine; conditions: up to a concentration of 2 μM
T3 construct: purchased Sigma Chemicals
Description: (§2) Fibrinogen was solubilised in assay buffer to a final concentration of 1 mg/ml and digested with KLK4 (+/−inhibitor) over a period of 90 minutes at 37° C. Typically assays consisted of 5 μM protein substrate and 2.5 nM KLK4 protein or 1 nM trypsin made up to a final volume of 8 μl with assay buffer. Proteolysis was initiated by addition of KLK4 and terminated by addition of SDS PAGE sample buffer and heat denaturation at 100° C. for 5 minutes. Hydrolysis products were resolved on 10% SDS PAGE gels and compared with incubations terminated immediately after initiation (time 0), and substrate proteins incubated in assay buffer for 90 minutes in the absence of KLK4 or 4-16 mins with trypsin.

[4] = biological target: KLK14 (Homo sapiens, UniProt Q9P0G3); experiment: Protein proteolysis: fibrinogen digestion by KLK14; type: biochemical; conditions: up to a concentration of 2 μM
[5] = biological target: T4, iKLK14 (Homo sapiens, UniProt Q9P0G3); experiment: Inhibitor kinetics: KLK14 amidolytic activity; type: biochemical
T4 construct: made in house

[6] = tested on: LNCaP prostate cancer cells; experiment: Primary tumour growth of LNCaP cells in nude mice (luciferase imaging); type: in vivo; conditions: 3×i.v. doses of 0.2 mg/kg, when tumour specific growth rate was less than 2%/day
Description: Nude mice were injected with 1.5×10^6 LNCaP prostate cancer cells stably expressing an exogenous luciferase reporter gene and imaged over a period of 56 days. Tumour growth was measured by injecting mice with […] (a luminescent substrate for luciferase) and the resulting light emissions were quantified using a xenogen in vivo imaging system.

[7] = biological target: T5, bovine β-trypsin (Bos taurus, UniProt P00760); experiment: Inhibitor kinetics: trypsin amidolytic activity; type: biochemical; conditions: trypsin; read-out: IC50
T5 construct: bovine β-trypsin (20 ng); purchased Sigma Chemicals
T5 sequence (P00760 24-246): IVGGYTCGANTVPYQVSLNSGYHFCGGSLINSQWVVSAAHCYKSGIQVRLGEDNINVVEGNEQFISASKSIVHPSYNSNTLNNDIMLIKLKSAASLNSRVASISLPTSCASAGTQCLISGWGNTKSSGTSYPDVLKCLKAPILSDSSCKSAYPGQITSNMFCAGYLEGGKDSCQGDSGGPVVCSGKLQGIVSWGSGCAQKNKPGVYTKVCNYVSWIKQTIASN
Description: as §1

[8] = biological target: KLK2 (Homo sapiens, UniProt P20151); experiment: Protein proteolysis: fibrinogen digestion by KLK2; type: biochemical; conditions: up to a concentration of 2 μM
[9] = biological target: KLK5 (Homo sapiens, UniProt Q9Y337); experiment: Protein proteolysis: fibrinogen digestion by KLK5; type: biochemical; conditions: up to a concentration of 2 μM
[10] = biological target: KLK12 (Homo sapiens, UniProt Q9UKR0); experiment: Protein proteolysis: fibrinogen digestion by KLK12; type: biochemical; conditions: up to a concentration of 2 μM
[11] = biological target: T6, bovine thrombin (Bos taurus, UniProt P00735); experiment: Inhibitor kinetics: thrombin amidolytic activity; type: biochemical; conditions: substrate Bz-FVR-pNA (0.2 mM)
T6 construct: purchased Sigma Chemicals
Description: as §1

[12] = biological target: T1, KLK4; experiment: Protein proteolysis: fibrinogen digestion by KLK4 (SDS-PAGE); type: biochemical; parameters: pro-region of PSA (KLK3), replacing the native KLK4 pro-region (only if the E. coli preparation was used) (N, cleaved yes); made in house; conditions: 2.5 nM KLK4, SDS-PAGE
Description: as §2

T1 sequence (Q9Y5K2 31-254): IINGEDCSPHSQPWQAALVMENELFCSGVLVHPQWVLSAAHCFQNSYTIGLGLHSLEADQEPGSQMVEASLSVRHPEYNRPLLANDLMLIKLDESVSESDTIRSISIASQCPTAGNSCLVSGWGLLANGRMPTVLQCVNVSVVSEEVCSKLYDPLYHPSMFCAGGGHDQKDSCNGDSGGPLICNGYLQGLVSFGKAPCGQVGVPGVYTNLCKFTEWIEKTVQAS
T2 sequence (P06868 27-812 limits assumed): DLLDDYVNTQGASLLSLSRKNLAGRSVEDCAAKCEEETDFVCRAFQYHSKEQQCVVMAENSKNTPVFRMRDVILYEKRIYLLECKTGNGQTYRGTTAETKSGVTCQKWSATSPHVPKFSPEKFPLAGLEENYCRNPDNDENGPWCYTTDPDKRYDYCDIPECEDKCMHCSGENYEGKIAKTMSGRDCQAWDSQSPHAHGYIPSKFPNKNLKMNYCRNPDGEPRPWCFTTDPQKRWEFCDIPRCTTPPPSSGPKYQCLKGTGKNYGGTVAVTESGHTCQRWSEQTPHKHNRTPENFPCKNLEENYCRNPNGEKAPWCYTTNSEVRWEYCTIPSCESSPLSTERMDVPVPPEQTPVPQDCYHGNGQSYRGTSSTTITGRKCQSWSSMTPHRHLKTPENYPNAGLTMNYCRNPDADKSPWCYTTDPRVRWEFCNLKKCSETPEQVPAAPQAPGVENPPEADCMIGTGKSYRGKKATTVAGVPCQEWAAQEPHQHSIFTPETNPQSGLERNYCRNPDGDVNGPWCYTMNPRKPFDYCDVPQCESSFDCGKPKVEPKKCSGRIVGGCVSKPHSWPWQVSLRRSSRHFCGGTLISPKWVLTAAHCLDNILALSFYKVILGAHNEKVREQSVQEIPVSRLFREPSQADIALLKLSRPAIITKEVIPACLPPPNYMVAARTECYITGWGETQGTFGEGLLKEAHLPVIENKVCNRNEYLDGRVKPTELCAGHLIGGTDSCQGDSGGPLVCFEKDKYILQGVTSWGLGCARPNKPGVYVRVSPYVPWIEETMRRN
Chain of KLK12 (Q9UKR0 18-248): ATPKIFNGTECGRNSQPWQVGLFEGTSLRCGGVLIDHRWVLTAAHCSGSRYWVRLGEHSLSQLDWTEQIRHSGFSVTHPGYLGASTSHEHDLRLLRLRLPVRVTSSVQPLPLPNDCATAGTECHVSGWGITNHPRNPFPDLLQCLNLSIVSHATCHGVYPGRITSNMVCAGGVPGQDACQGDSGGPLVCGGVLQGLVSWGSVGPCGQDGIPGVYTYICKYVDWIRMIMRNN
Chain of KLK5 (Q9Y337 23-293): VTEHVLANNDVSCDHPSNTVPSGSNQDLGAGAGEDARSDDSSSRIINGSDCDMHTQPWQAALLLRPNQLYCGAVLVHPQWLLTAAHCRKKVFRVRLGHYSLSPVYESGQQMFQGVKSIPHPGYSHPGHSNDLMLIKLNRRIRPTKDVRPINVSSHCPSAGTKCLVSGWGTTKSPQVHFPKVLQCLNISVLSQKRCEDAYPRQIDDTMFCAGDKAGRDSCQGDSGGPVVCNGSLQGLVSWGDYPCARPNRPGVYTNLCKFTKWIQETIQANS
Chain of KLK2 (P20151 25-261): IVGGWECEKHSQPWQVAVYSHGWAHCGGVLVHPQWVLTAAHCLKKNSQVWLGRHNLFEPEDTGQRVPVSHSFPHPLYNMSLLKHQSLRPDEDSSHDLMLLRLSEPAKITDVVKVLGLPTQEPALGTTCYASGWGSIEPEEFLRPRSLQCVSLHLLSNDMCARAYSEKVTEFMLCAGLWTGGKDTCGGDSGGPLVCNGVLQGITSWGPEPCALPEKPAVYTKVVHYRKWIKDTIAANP
T3 sequence (P00760 18-246 limits assumed): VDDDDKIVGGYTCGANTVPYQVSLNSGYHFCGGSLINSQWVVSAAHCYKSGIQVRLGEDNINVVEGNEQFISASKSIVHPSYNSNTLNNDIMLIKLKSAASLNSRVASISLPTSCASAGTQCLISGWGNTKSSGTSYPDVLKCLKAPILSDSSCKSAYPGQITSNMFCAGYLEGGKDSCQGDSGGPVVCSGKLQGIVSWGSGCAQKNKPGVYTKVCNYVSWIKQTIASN
Chain of KLK14 (Q9P0G3 35-267 limits assumed): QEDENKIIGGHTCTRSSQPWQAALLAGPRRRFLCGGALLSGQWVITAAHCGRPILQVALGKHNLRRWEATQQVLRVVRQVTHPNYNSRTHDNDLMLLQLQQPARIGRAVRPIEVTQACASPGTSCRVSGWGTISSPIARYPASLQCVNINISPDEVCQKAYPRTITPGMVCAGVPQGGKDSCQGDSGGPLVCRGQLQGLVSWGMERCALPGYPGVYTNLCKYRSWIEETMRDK
T4 sequence (Q9P0G3 41-267): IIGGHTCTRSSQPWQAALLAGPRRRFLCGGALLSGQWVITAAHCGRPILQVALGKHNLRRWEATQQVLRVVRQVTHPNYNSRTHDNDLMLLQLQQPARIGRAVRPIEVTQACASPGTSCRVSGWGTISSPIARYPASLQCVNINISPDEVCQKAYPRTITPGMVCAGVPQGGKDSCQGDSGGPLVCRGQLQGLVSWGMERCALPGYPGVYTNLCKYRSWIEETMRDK

CC[C@H](C)[C@@H]1NC(=O)[C@@H]2CCCN2C(=O)[C@@H]2CCCN2C(=O)[C@H]([C@@H](C)CC)NC(=O)[C@H](CO)NC(=O)[C@H](CCCNC(=N)N)NC(=O)[C@H](CCC(N)=O)NC(=O)[C@@H]2CSSC[C@H](NC1=O)C(=O)N[C@@H](Cc1ccccc1)C(=O)N1CCC[C@H]1C(=O)N[C@@H](CC(=O)O)C(=O)NCC(=O)N[C@@H](Cc1ccccc1)C(=O)N2 [SFTI-FCQR] (cyclo(GFCQRSIPPICFPD); disulfide 3-11)
IC50 [1]: 0.00797 ± 0.00108 µM
Ki [1]: 0.00359 ± 0.00108 µM
IC50 [2]: did not inhibit
IC50 ([2]; read-out: IC50): > 10 µM
inhibition of tryptic digestion of fibrinogen [3]: no inhibition
inhibition of KLK14 digestion of fibrinogen [4]: no inhibition
IC50 [5]: 1.51 ± 0.0371 µM
tumour growth rate in comparison to control [6]: arrested tumour growth rate
IC50 [7]: 4.06 ± 1.09 µM
inhibition of KLK2 digestion of fibrinogen [8]: no inhibition
inhibition of KLK5 digestion of fibrinogen [9]: no inhibition
inhibition of KLK12 digestion of fibrinogen [10]: no inhibition
IC50 [11]: did not inhibit
IC50 ([11]; read-out: IC50): > 10 µM
concentration giving complete inhibition of fibrinogen proteolysis by KLK4 [12]: 250 nM
